Earlier results, collected in patent EP0642530B1, “DERIVATIVES OF DOLASTATIN” (BASF Aktiengesellschaft, priority 1992, dated 1993).

Conditions: background statement, no method given

Substance: Dolastatin-10
- stability to acid: unstable to acid
